Legend:
[1] = test system: LPS-activated TLR4 signal; test: LPS-activated TLR4 signaling in RAW264.7 cells (immunoblotting); format: cell-based, mouse
Protocol: Cells and reagents. Mouse monocyte macrophage ceils (RAW264.7) that innately express the TLR4 receptor were obtained from American Type Culture Collection (Manassas, Va., USA). The cells were grown in Dulbecco's modified Eagle's medium (DMEM) (Gibco; Gaithersburg, Md., USA) supplemented with 10% fetal bovine serum (FBS, Gemini, West Sacramento, Calif., USA), 1% penicillin/streptomycin 100× (Gibco) at 37° C. in a 5% CO2 humidified atmosphere. The TLR4-specific ligand IPS was purchased from Sigma-Aldrich (St. Louis, Mo., USA) (Cat. #L3024) and added to the cultures (1 μg/ml) 24 hrs before cell collection.
Immunoblotting. The assay used for RAW264.7 cell lysates and co-immunoprecipitation was as previously described (Aurelian et al, 2016; June et al, 2015; Liu et al, 2011). RAW246.7 cells grown on T-75 flasks (n=5 flasks/group) were lysed with radioimmunoprecipitation (RIPA) buffer [20 mM Tris-HCl (pH 7.4), […], 1% Nonidet P-40 (Sigma, St. Louis, Mo., USA), 0.1% SDS (sodium dodecyl sulfate), 0.5% sodium deoxycholate] supplemented with protease and phosphatase inhibitor cocktails (Sigma). The total protein was determined by the bicinchoninic acid assay (BCA, Thermo Fisher Scientific, Waltham, Mass., USA, Cat. #23228 and Cat. #1859078). The proteins (100 μg/lane) were resolved by SDS-polyacrylamide gel electrophoresis using freshly prepared 16×18 cm gels and transferred to polyvinylidene fluoride membranes (PVDF, Bio-Rad, Cat. #162-0177). Blots were blocked with 5% Blotting-Grade Blocker (Bio-Rad, Cat. #1706404; for non-phosphorylated primary antibodies) or 5% BSA (for phosphorylated primary antibodies) for 2 hrs at room temperature (RT) and exposed to primary antibody overnight (4° C.), followed by horseradish peroxidase-labeled secondary antibodies for 1 h (room temp), immunoreactive bands were visualized with the Plus-ECL kit reagents (Perkin Elmer, Waltham, Mass., USA, Cat. #NEL105001EA) followed by exposure to high-performance chemiluminescence film (Hyperfilm ECL; Amersham). Quantitation was by densitometric scanning with a Bio-Rad GS-700 imaging densitometer. Blots were stripped and re-probed with different primary antibodies 3-5 times. Each densitometric measurement was divided by the corresponding β-Actin densitometric measurement and the results [n=5/group] are expressed as the mean β-Actin-adjusted densitometric units±SEM.
To examine whether the neurosteroids inhibit the LPS-activated TLR4 signal, RAW264.7 cells were treated with IPS (1 μg/mi; 24 hrs) in the absence or presence of 3α,5α-THP (0.5 μM, 1 μM) or pregnenolone (0.5 μM, 1 μM), and ceil extracts were assayed for expression of MyD88-dependent pathway members, by immunoblotting with antibodies to pTAK1, monocyte chemotactic protein (MCP-1), TRAF6, TLR4, and transcription factor NFκB p50 (Chattopadhyay S, et al. (2014). Cytokine Growth Factor Rev 25(5): 533-541; Irie T, et al. (2000). FEBS Lett 467(2-3): […]; Lu Y C, et al. (2008). Cytokine 42(2): 145-151).
Because the neurosteroids had relatively little effect on NFκB p50, the possibility that inhibition of other transcription factors and proinflammatory responses may be involved was considered. RAW246.7 ceils were treated as described above and protein extracts were immunoblotted with antibodies to phospho-NF-κB p65, pCREB, the proinflammatory cytokine tumor necrosis factor alpha (TNFα), and high mobility group box-1 (HMGB1), a highly conserved non-histone chromosomal protein, the translocation of which from the intra- to extra-cellular environment is a critical event in inflammatory responses. Indeed, HMGB1 is currently recognized as a cytokine secreted from activated macrophages and other inflammatory cells during the innate immune response and if is believed to function as a TLR4 ligand. […]

[2] = test system: innately activated TLR4 signal in P rat VTA; test: TLR4 signaling in P rat VTA after systemic neurosteroid (immunoblot, MCP-1 ELISA); format: in vivo; conditions: 15 mg/kg IP, P rats
Protocol: Immunoblotting for whole VTA lysates was done as previously described (Carlson et al, 2013). Briefly, VTA micropunches (1 mm thick) were lysed with CelLytic MT (dialyzable mild detergent, bicine, and 150 mM NaCl; Sigma-Aldrich) and protease and phosphatase inhibitor cocktail according to the manufacturer's instructions. Total protein was determined by the BCA assay. The proteins (10 μg/lane) were resolved by NuPAGE™ 4-12% Bis-Tris Midi Protein Gel (Thermo Fisher, Waltham, Mass.) electrophoresis and transferred using the iBlot 2 Dry Blotting System (Thermo Fisher, Waltham, Mass.). Blots were then exposed to an antibody for β-actin for normalization. Proteins were detected with enhanced chemilumenescence (GE Healthcare, Amersham, UK). Membranes were exposed to film under non-saturating conditions. Densitometric analysis was conducted using NIH Image 1.57.
Animals. Selectively bred, but alcohol naïve Alcohol-preferring (P) rats (male, 3-4 months old; 250-550 g) (n=7-9/group) were obtained from the Alcohol Research Center, Indiana University School of Medicine, Animals were double housed in Plexiglas cages containing corn cob bedding and food and water was available ad libitum. The colony room was maintained on a normal 12 hr light-dark cycle (light onset at 0700 hr). Procedures followed National Institutes of Health Guidelines under UNC institutional Animal Care and Use Committee approved protocols at University of North Carolina School of Medicine. Rats were habituated to handling for 7 days prior to administration of 3α,5α-THP (15 mg/kg, IP), pregnenolone (75 mg/kg, IP), 3α,5α-THDOC (15 mg/kg, IP), or vehicle (45% w/v 2-hydroxypropyl-p-cyclodextrin) and returned to their home cage. Rats were sacrificed after 45 minutes and the brain was removed and frozen at −80° C. until VTA micropunches were collected from 1 mm cryostat brain sections. This time point was selected because 3α,5α-THP is rapidly metabolized in vivo (Purdy et al, 1990), but has behavioral and pharmacological activity at this time point (Crawley et al, 1986).
ELISA. Brain tissue micropunches were lysed with Cellyte MT and the extracts were assayed for protein content by the BCA procedure (Pierce) and for MCP-1 using the rat MCP-1 ELISA kit (Raybiotech—ERC-MCP-1-CL; Norcross, Ga., USA) or for fracktalkine using the rat fractalkine ELISA kit (Raybiotech—ERC-CX3CL1-CL; Norcross, Ga., USA) as per manufacturer's instructions.
Since the neurosteroids inhibited the TLR4 activation signal in cultured macrophage cells, experiments were conducted to determine whether this also occurs in the brain. Selectively bred P rats that have an innately activated TLR4 signal in the VTA (Liu J, et al. (2011). Proc Natl Acad Sci USA 108(11): 4465-4470), were administered 3α,5α-THP (15 mg/kg, IP) or pregnenolone (75 mg/kg, IP), sacrificed after 45 minutes and examined for TLR4 signaling using parallel measures. […] 3α,5α-THP administration reduced the levels of MCP-1 by 20±9% (p<0.05), TRAF6 by 19±3% (p<0.0001), and CRF by 28±9% (p<0.01), with no effect on TLR4 protein expression (FIG. 4A). Pregnenolone administration had no effect on TRAF6, CRF, or TLR4.

TLR7 signal = test: Imiquimod-activated TLR7 signaling in RAW264.7 cells; format: cell-based, mouse; conditions: imiquimod 1 μg/ml for 24 hours, RAW264.7
Protocol: Because multiple TLRs signal through MD-2, […] and MyD-88, the specificity of the neurosteroid 3α,5α-THP on TLR2, TLRS and TLR7 signal activation was examined in RAW264.7 ceils (FIG. 7). Pam3Cys (10 μg/ml) activated TLR2 signaling, evidenced by increases in pCREB, pERK1/2, TRAF6 and pATF-2, that were sustained for 24 hrs and inhibited by 3α,5α-THP (1 μM) (50-60% compared to vehicle).

TLR3 signal = test: Poly(I:C)-activated TLR3 signaling in RAW264.7 cells; format: cell-based, mouse; conditions: Poly-IC 25 μg/ml; 24 hrs; RAW264.7
[3] = 0.5 μM or 1 μM (concentration not assigned), RAW264.7
[4] = 1.0 μM, LPS 1 μg/ml, 24 hrs, RAW264.7

For `C[C@]12CC[C@@H](O)C[C@@H]1CC[C@@H]1[C@@H]2CC[C@]2(C)[C@@H](C(=O)CO)CC[C@@H]12` [3α,5α-THDOC, (3α,5α)3,21-dihydroxypregnan-20-one], the “inhibition of LPS-activated MCP-1” value [1, 3] was “approximately 90%”, the “inhibition of LPS-activated NFκB p50” value [1, 3] was 30-40% and the “effect on TLR4 expression” value ([1]; 0.5 μM or 1 μM, LPS-treated RAW264.7, 24 hrs) was “did not affect”. For the same compound, the “enhancement of LPS-induced TRAF6” value ([1]; 0.5 μM, LPS 1 μg/ml, 24 hrs, RAW264.7) was 51.6±8.3%, the “enhancement of LPS-induced TRAF6” value [1, 4] was 16.8±5.7% and the “increase of LPS-induced pTAK1” value [1, 4] was 2 fold. The “effect on TLR4 protein expression in VTA” value ([2]; 45 minutes) was “No effect”, the “increase of CRF levels in VTA” value [2] was 39±16% and the “increase of TRAF6 levels in VTA” value [2] was 32±12%. The “effect on MCP-1 expression in VTA” value ([2]; ELISA) was “no effect”.
`CC(C)Cn1cnc2c(N)nc3ccccc3c21` [imiquimod] was tested, and the “increase in pIRF7” value (TLR7 signal) was 30%.
For Poly-IC, the “increase in IP-10 (CXCL10) expression” value (TLR3 signal) was 90%.
